How the values were obtained:
[1] = Signs of toxicity and deaths in the hairless rat study; type: in vivo
Method: A Control Group was included, administered only with the vehicle (absolute ethanol).
(§1) The treatments were administered topically, once a day for 10 days (100 μg/side/animal). The animals were weighed on a daily basis throughout the study and the grade of erythema was evaluated (0=Absence of erythema, 1=Low grade erythema, 3=High grade erythema). On the last day of the study, day 11, the amount of corneous material extracted from the epidermis of the animals was evaluated.

[2] = system: cell hyperproliferation in hairless rats; assay: Model of desquamation in hairless rats: corneous material extracted; type: in vivo
Method: The activity of compound A on cell hyperproliferation in hairless rats was evaluated using the model of desquamation in hairless rats described in the publication: Bräutigam, M., Hübner, H., Rach, P., Thieroff-Ekerdi, R. “Effects of Calcipotriol (MC 903) and Calcitriol after Topical Application on the Skin of Hairless Rats”, Skin Pharmacol 1992; 5:87-92.
(§2) To do this Calcitriol was used as the reference product at 0.01% and compound A was used as the test product at 1% and 0.1% (100 μg/cm^2 and 10 μg/cm^2, respectively). A Control Group was included, administered only with the vehicle (absolute ethanol).
The animals were randomly distributed into the following experimental groups:
as §1

[3] = Assessment of erythema in the hairless rat study; type: in vivo, hairless rats; conditions: Calcitriol 0.01% topical once a day, 0=absence, 1=low grade, 3=high grade
Method: as §2, §1

[4] = Body weight in the hairless rat study; type: in vivo, hairless rats; conditions: Calcitriol 0.01% topical once a day
Method: as §2, §1

[5] = Calcitriol 0.01% (1 μg/cm^2) topical once a day for 10 days, day 11

**Q.** For `C=C1/C(=C\C=C2/CCC[C@]3(C)[C@@H]([C@H](C)CCCC(C)(C)O)CC[C@@H]23)C[C@@H](O)C[C@@H]1O` [Calcitriol, 1-alpha,25-dihydroxycholecalciferol, reference compound], which “animals that died before the end of the study” value ([1]; Calcitriol 0.01% group (n 6), repeated administration) is on record?
**A.** Three

**Q.** And the signs of toxicity ([1]; rat, in vivo)?
**A.** clear signs of toxicity were detected

**Q.** What about the “amount of corneous material extracted, total sum of the right and left flanks, Portal No, 1” value [2, 5] of the same compound?
**A.** 13.5 ± 4.89 mg

**Q.** What about the “amount of corneous material extracted, total sum of the right and left flanks, Portal No, 2” value [2, 5] of the same compound?
**A.** 7.7 ± 1.43 mg

**Q.** What about the “amount of corneous material extracted, total sum of the right and left flanks, Portal No, 3” value [2, 5] of the same compound?
**A.** 5.9 ± 0.94 mg

**Q.** And the “amount of corneous material extracted, total sum of the right and left flanks, Portal No, 4” value [2, 5]?
**A.** 4.5 ± 0.60 mg

**Q.** What about the “amount of corneous material extracted, total sum of the right and left flanks, Portal No, 5” value [2, 5] of the same compound?
**A.** 3.7 ± 0.35 mg

**Q.** And the “amount of corneous material extracted, total sum of the right and left flanks, Portal No, 6” value [2, 5]?
**A.** 21.7 ± 2.07 mg

**Q.** What about the “amount of corneous material extracted compared with the other experimental groups” value ([2]; Calcitriol 0.01%, topical 0.2 ml/animal) of the same compound?
**A.** clearly greater than that extracted in the other experimental groups

**Q.** What about the “Assessment of erythema (mean grade)” value ([3]; Baseline) of the same compound?
**A.** 0.0 ± 0.00

**Q.** And the “Assessment of erythema (mean grade)” value ([3]; Day 2)?
**A.** 0.0 ± 0.00

**Q.** And the “Assessment of erythema (mean grade)” value ([3]; Day 3)?
**A.** 0.0 ± 0.00

**Q.** And the “Assessment of erythema (mean grade)” value ([3]; Day 4)?
**A.** 0.0 ± 0.00

**Q.** And the “Assessment of erythema (mean grade)” value ([3]; Day 5)?
**A.** 0.0 ± 0.00

**Q.** What about the “Assessment of erythema (mean grade)” value ([3]; Day 6) of the same compound?
**A.** 0.0 ± 0.00

**Q.** What about the “Assessment of erythema (mean grade)” value ([3]; Day 7) of the same compound?
**A.** 0.0 ± 0.00

**Q.** And the “Assessment of erythema (mean grade)” value ([3]; Day 8)?
**A.** 1.0 ± 0.00

**Q.** What about the “Assessment of erythema (mean grade)” value ([3]; Day 9) of the same compound?
**A.** 1.5 ± 0.22

**Q.** What about the “Assessment of erythema (mean grade)” value ([3]; Day 10) of the same compound?
**A.** 2.0 ± 0.20

**Q.** What about the “Assessment of erythema (mean grade)” value ([3]; Day 11) of the same compound?
**A.** 2.0 ± 0.00

**Q.** And the Body weight ([4]; Baseline)?
**A.** 0.0 ± 0.00 g

**Q.** What about the Body weight ([4]; Day 2) of the same compound?
**A.** 0.0 ± 0.00 g

**Q.** What about the Body weight ([4]; Day 3) of the same compound?
**A.** 0.0 ± 0.00 g

**Q.** What about the Body weight ([4]; Day 4) of the same compound?
**A.** 0.0 ± 0.00 g

**Q.** And the Body weight ([4]; Day 5)?
**A.** 0.0 ± 0.00 g

**Q.** What about the Body weight ([4]; Day 6) of the same compound?
**A.** 0.0 ± 0.00 g

**Q.** What about the Body weight ([4]; Day 7) of the same compound?
**A.** 0.0 ± 0.00 g

**Q.** What about the Body weight ([4]; Day 8) of the same compound?
**A.** 1.0 ± 0.00 g

**Q.** What about the Body weight ([4]; Day 9) of the same compound?
**A.** 1.5 ± 0.22 g

**Q.** What about the Body weight ([4]; Day 10) of the same compound?
**A.** 2.0 ± 0.20 g

**Q.** And the Body weight ([4]; Day 11)?
**A.** 2.0 ± 0.00 g
